“Also recorded” adds a separate entry of the source.
Tests used:
PPARγ = target: T1, PPARγ (Homo sapiens, UniProt P37231); experiment: PPRE-Acox-Rluc reporter gene assay in CV-1 cells transfected with PPARγ; format: cell-based; details: for activation of the PPRE-Acox-Rluc reporter: 10 μM, 20 h, CV-1 cells (FIG. 6C)
T1 construct: expressed in transfected cells; host or cells: CV-1 cells, transient transfection with LipofectAMINE 2000
T1 sequence (P37231 1-505): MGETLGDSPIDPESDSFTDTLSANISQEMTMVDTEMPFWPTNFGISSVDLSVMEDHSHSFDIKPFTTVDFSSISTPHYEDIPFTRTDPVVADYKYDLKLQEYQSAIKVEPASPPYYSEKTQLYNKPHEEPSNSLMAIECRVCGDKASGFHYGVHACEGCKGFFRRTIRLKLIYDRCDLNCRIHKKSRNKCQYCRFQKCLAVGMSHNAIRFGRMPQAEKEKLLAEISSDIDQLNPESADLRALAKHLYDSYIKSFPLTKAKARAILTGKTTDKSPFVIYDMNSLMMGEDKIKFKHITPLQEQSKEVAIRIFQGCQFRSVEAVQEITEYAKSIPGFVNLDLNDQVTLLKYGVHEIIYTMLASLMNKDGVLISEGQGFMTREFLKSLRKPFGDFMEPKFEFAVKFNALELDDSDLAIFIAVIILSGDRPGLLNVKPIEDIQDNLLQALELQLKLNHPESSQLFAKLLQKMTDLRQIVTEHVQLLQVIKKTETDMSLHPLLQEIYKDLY
T1 sequence (P19793 1-462 partner): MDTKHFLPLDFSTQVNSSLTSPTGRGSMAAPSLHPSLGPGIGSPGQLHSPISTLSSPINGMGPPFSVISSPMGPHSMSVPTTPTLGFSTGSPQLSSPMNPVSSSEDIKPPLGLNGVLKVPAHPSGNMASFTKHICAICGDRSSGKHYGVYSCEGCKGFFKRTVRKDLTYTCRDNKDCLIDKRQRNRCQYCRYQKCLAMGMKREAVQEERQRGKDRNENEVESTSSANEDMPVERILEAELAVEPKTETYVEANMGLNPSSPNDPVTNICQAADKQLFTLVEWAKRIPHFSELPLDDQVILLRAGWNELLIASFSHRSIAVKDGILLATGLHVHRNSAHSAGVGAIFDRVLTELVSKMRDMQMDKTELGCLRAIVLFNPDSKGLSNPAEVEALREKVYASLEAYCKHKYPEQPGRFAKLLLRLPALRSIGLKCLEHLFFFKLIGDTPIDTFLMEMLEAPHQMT
Experimental: CV-1 cells were plated in 96-well plates (5×10^3 cells per well) in DME supplemented with 10% FBS. […] Twenty four hours after transfection, cells were treated with 1% FBS-supplemented OptiMEMI™ (Invitrogen) containing DMSO or test compound (10 μM) in DMSO for 20 h. Luciferase and β-galactosidase activities were measured with the Steady-Glo® Luciferase Assay System (Promega) and the Galacto-Light Plus™ System (Applied Biosystems), respectively. Samples were run in quadruplicate, and the mean±SE were calculated. Data are representative of at least three independent transfections. Student's t test was used for null hypothesis testing, and P<0.05 was considered significant.

rat carotid arteries = experiment: Induction of neointima formation in rat carotid artery by topical application; format: in vivo
Text: Briefly, the right carotid artery of anesthetized adult male Sprague-Dawley rats (250-300 g) was surgically exposed. The caudal origin of the common carotid artery was ligated using a vessel clip, followed by exposure and ligation of the internal carotid artery above the bifurcation. The external carotid artery was exposed, and a polyethylene catheter was inserted such that it never reached the common carotid artery, thereby avoiding mechanical injury to the vessel. The clip occluding the common carotid artery was temporarily released, and the vessel was rinsed with a retrograde injection of 500 μl physiological saline to remove residual blood. The vessel was again clipped, and 100 μl of treatment solution was injected. After 60 min of incubation, the cannula was withdrawn, the external carotid artery was ligated, and blood flow was restored. Animals were allowed to recover and were killed 7-56 d later by intracardiac perfusion of 10% buffered formaldehyde (pH 7.4). The common carotid artery from the […] to the bifurcation was dissected, embedded in paraffin, and processed for histological analysis. Five μm-thick sections were cut and stained with hematoxylin and eosin or Masson's trichrome stain. Intima to media ratios were quantified using an image analysis system (Scion Image CMS-800).

[1] = system: vascular smooth muscle cells; experiment: Phenotypic modulation and dedifferentiation of cultured VSMCs (morphology, hCAD mRNA); format: cell-based, rat
Experimental: Expression of lysophosphatidic acid-specific G protein-coupled plasma membrane receptors in rat carotid arteries was examined by RT-PCR as described earlier by Wang et al. (2002). To quantify heavy caldesmon mRNA, quantitative PCR was performed applying the real-time SYBR Green PCR method using a Sequence Detection System Model 7700 (Applied Biosystems) instrument. Rat heavy caldesmon and GAPDH (reference control mRNA)-specific primers were designed with Primer Express Software (Applied Biosystems), and forward and reverse primers were as follows: 5′-[…]-3′ (SEQ ID NO:1) and 5′-[…]-3′ (SEQ ID NO:2) for heavy caldesmon; 5′-[…]-3′ (SEQ ID NO:3) and 5′-[…]-3′ (SEQ ID NO:4) for GAPDH. Amplification reaction was performed with SYBR Green PCR Master Mix (Applied Biosystems) following the manufacturer's protocol. mRNA abundance calculation was based on Ct values as described previously (Wang et al., 2002). The expression level of heavy caldesmon mRNA was normalized to GAPDH mRNA. Each PCR reaction was performed at least three times, and the result was expressed as mean±SEM. Statistical comparison of mRNA expression was evaluated by ANOVA, and P<0.05 was considered statistically significant.
It has been reported that unsaturated lysophosphatidic acid species induced phenotypic modulation of cultured vascular smooth muscle cells (VSMCs). Because the neointimal response and PPARγ display a similar selectivity for unsaturated lysophosphatidic acid, that activation of PPARγ plays a role in the phenotypic dedifferentiation is hypothesized herein. This hypothesis was tested in a culture system in which IGF-1 maintains the differentiated spindle shape of vascular smooth muscle cells as indicated by high levels of heavy caldesmon (hCAD) mRNA expression.

[2] = system: CD36(−273)-Rluc reporter gene; experiment: CD36(−273)-Rluc reporter gene (with PPRE) in CV-1 cells; format: cell-based; details: 10 μM, CV-1 cells (FIG. 7E)
Experimental: Therefore, the investigators compared the unique in vivo neointima-eliciting lysophosphatidic acid structure-activity relationship with that of PPARγ using an in vitro assay that utilizes an acyl-coenzyme A oxidase-luciferase (PPRE-Acox-Rluc) reporter gene construct containing a peroxisome proliferator-activated receptor response element. CV-1 cells were plated in 96-well plates (5×10^3 cells per well) in DME supplemented with 10% FBS. The next day, the cells were transiently transfected with 125 ng of pGL3-PPRE-acyl-CoA oxidase (Acox)-renilla luciferase), or 125 ng pGL3-CD36(−273), or pGL3-CD36(−261), 62.5 ng of pcDNAI-PPARγ, and 12.5 ng of pSV-β-galactosidase (Promega) using LipofectAMINE™ 2000 (Invitrogen). Twenty four hours after transfection, cells were treated with 1% FBS-supplemented OptiMEMI™ (Invitrogen) containing DMSO or test compound (10 μM) in DMSO for 20 h. Luciferase and β-galactosidase activities were measured with the Steady-Glo® Luciferase Assay System (Promega) and the Galacto-Light Plus™ System (Applied Biosystems), respectively. Samples were run in quadruplicate, and the mean±SE were calculated. Data are representative of at least three independent transfections. Student's t test was used for null hypothesis testing, and P<0.05 was considered significant.

[3] = 10 μM, rat carotid artery model (FIG. 3C)
[4] = 10 ng/ml, 2-wk period (FIG. 5B)

## CCCCCCCCCCCCC/C=C/[C@@H](O)[C@@H](N)COP(=O)(O)O [S1P, sphingosine 1-phosphate]
PPARγ
  activation of the PPRE-Acox-Rluc reporter: inactive

## lysophosphatidic acid
PPARγ; albumin 0.04-4% wt/vol, concentration-dependent (FIG. 7G)
  effect of added albumin on compound-induced activation of the PPRE-Acox-Rluc reporter gene: inhibited
PPARγ; dose-response (FIGS. 6E and F)
  concentrations sufficient to cause significant activation of the reporter: high nanomolar concentrations
PPARγ; rat serum 1-20% vol/vol, concentration-dependent (FIG. 7H)
  effect of added rat serum on compound-induced activation of the PPRE-Acox-Rluc reporter gene: inhibited

## CCCCCCCCCCCCCCCCCC(=O)OCC(O)COP(=O)(O)O (centres unmarked) [LPA 18:0]
Rat carotid arteries; [3]
  neointima formation: did not elicit detectable neointima

## O=C(Nc1ccccc1)c1cc([N+](=O)[O-])ccc1Cl [GW9662]
[1]; 200 nM GW9662
  effect on LPA 20:4- and Rosi-induced flattened morphology of VSMCs: reversed this effect
[1]; 200 nM pretreatment, quantitative RT-PCR (FIG. 8I)
  effect on hCAD mRNA expression: caused a significant increase in hCAD mRNA expression
[1]; 200 nM, 30 min pretreatment
  effect on morphology of IGF-1- and LPA 20:0-treated VSMC cultures: did not affect the spindle-like morphology
PPARγ; 10 μM (FIG. 6D)
  inhibition of lysophosphatidic acid 20:4-induced PPRE-Acox-Rluc reporter gene expression: abolished
Rat carotid arteries; 5 μM 30 min before and coapplied with 2.5 μM LPA 20:4
  inhibition of neointima formation elicited by lysophosphatidic acid 20:4: completely abolished neointima formation; also recorded: inhibited
Rat carotid arteries; FIG. 6B
  effect on vessels from animals treated with SOV-PC and saturated lysophosphatidic acid species: had no effect
  inhibition of AZ-PC-induced neointima formation: inhibited by GW9662
Rat carotid arteries; GW9662 pretreatment (FIG. 6B)
  inhibition of neointima formation in response to LPA 18:2: inhibited
  inhibition of neointima formation in response to minimally oxidized LDL: inhibited
Rat carotid arteries; GW9662 pretreatment and coapplication (FIG. 6B)
  inhibition of Rosi-induced lesion formation: fully blocked

## CCCCCCCCCCCCCCCC(=O)O[C@H](COP(=O)(O)O)C(F)F [XY4, 1,1-difluorodeoxy-(2R)-palmitoyl-sn-glycero-3-phosphate]
Rat carotid arteries; 10 μM, 2-wk period (FIG. 5B)
  neointima formation: showed neointima formation

## CCCCCCCCCCCCCCCCCC(=O)OC[C@H](COP(=O)([O-])OCC[N+](C)(C)C)OC(=O)CCCC=O [SOV-PC, stearoyl-oxovaleryl phosphatidylcholine]
Rat carotid arteries; after 2 weeks (FIG. 6B)
  neointima formation: failed to stimulate neointima formation

## CCCCCCCCC=CCCCCCCCCOCC(O)COP(=O)(O)O (centres unmarked) [1AGP, 1-octadecenyl-glycerophosphate]
[2]
  stimulation of CD36(−273)-Rluc reporter gene: higher stimulation
Rat carotid arteries; [3]
  neointima formation: highly effective

## CCCCCCCCCCCCCCCCOC[C@@H](O)COP(=O)(O)O [hexadecyl-GP]
PPARγ
  activation of the PPRE-Acox-Rluc reporter: activated the reporter gene

## dioctylglycerol pyrophosphate [DGPP]
Rat carotid arteries; FIG. 6A
  inhibition of lysophosphatidic acid 20:4-induced neointima formation: modest inhibition

## LPA 18:1
Rat carotid arteries; 10 μM, 2-wk period (FIG. 5B)
  neointima formation: showed neointima formation
Rat carotid arteries; 2 wk after treatment (FIG. 4B)
  extent of neointima development, concentration dependence: concentration dependent up to 10 μM
Rat carotid arteries; P<0.01, FIG. 4B
  concentration at which neointima development reached statistical significance: 5 µM

## PDGF
Rat carotid arteries; [4]
  neointima formation: ineffective in inducing neointima formation; also recorded: failed to induce detectable neointima

## CCCCCCCCCCCCCCCCOCC(COP(=O)([O-])OCC[N+](C)(C)C)OC(=O)CCCCCCCC(=O)O (centres unmarked) [AZ-PC, 1-O-hexadecyl-2-azaleoyl-phosphatidylcholine]
Rat carotid arteries; after 2 weeks (FIG. 6B)
  neointima formation: caused neointima formation

## 3-O-octadecenyl-glycerophosphate [3AGP]
Rat carotid arteries; [3]
  neointima formation: modestly effective

## 2,3-cyclic phosphatidic acid [cPA 18:1]
PPARγ
  activation of the PPRE-Acox-Rluc reporter: inactive
Rat carotid arteries; [3]
  neointima formation: did not elicit detectable neointima
Rat carotid arteries; 10 μM, rat carotid artery model (FIG. 3C), listed as cPA
  neointima formation: inactive

## VEGF
Rat carotid arteries; [4]
  neointima formation: ineffective in inducing neointima formation; also recorded: failed to induce detectable neointima

## CCCCCCCCCCCCCCCC(=O)OC[C@@H](F)COP(=O)(O)O [XY8, 1-palmitoyl-(2R)-fluorodeoxy-sn-glycero-3-phosphate]
Rat carotid arteries; 10 μM, 2-wk period (FIG. 5B)
  neointima formation: showed neointima formation

## CCCCCCCCCCCCCCCCCCOC[C@@H](O)COP(=O)(O)O [octadecyl-GP]
PPARγ
  activation of the PPRE-Acox-Rluc reporter: activated the reporter gene

## EGF: epidermal growth factor (NSDSECPLSHDGYCLHDGVCMYIEALDKYACNCVVGYIGERCQYRDLKWWELR; UniProt P01133 971-1023, looked up)
Rat carotid arteries; 50 ng/ml, 2-wk period (FIG. 5B)
  neointima formation: failed to induce detectable neointima
Rat carotid arteries; 100 ng/ml (summary)
  neointima formation: ineffective in inducing neointima formation

Reference: patent US20040204383A1, “Lysophosphatidic acid analogs and inhibition of neointima formation” (priority 2003, published 2004)
